Measurements from patent US20260185163A1, “MEN1 MUTATIONS AND USES THEREOF” (DANA-FARBER CANCER INSTITUTE, INC., priority 2022, published 2026).
Substitutions are numbered along the chain they refer to.

Experiments:
[1] = biological target: T1, T349M-mutant Menin (Homo sapiens, UniProt O00255, T344M); test: competitive MLL1 fluorescence polarization (FP) binding assay, displacement of MLL1 peptide
T1 construct: made in house; host or cells: E. coli BL21-DE3 Rosetta
T1 sequence (O00255 1-615 isoform O00255-1 T349M): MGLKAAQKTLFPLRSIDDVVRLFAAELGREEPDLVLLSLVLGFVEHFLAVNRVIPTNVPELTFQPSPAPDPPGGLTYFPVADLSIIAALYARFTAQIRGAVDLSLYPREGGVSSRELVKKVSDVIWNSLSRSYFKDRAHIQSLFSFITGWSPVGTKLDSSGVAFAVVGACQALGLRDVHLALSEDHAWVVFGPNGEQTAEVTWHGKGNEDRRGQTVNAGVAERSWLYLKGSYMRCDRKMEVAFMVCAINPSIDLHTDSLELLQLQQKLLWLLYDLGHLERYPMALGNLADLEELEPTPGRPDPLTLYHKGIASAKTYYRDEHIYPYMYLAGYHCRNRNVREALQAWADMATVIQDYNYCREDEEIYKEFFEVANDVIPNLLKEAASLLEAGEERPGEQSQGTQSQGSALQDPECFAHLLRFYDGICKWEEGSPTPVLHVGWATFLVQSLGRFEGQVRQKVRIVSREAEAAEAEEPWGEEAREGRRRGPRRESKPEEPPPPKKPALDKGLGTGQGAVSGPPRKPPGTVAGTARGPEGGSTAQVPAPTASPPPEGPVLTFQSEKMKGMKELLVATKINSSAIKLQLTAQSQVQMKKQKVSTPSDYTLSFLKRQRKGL
Protocol: (§1) The following peptides were synthesized by GenScript: N-terminal FITC-conjugated MLL14-43(C-A) peptide probe ([…]) with a C-A modification that improves binding to Menin^19, MLL14-43(C-A) ([…]) and MLL14-43(WT) ([…]). N-terminally FITC-labelled and unmodified MLL2 peptides (MLL2(15-48) […]) were synthesized at Genscript. To derive the FITC-MLL14-43(C-A) peptide Kd. FITC-conjugated MLL14-43(C-A) peptide probe at final concentration of 1 nM was mixed with increasing concentration of purified StrepII-Avi-TEV-Menin (5 μM final top concentration, 2-fold, 23-point dilution and a buffer control) in an assay buffer (50 mM Tris pH 7.5, 200 mM NaCl, 0.1% Pluronic F-68 solution (Sigma)) in 384-well microplates at 15 μL assay volume (Corning, 4514) and incubated for 30 min at room temperature (RT). For all assays change in fluorescence polarization was monitored using a PHERAstar FS microplate reader (BMG Labtech). The FITC-conjugated MLL14-43(C-A) peptide Kd was obtained from a fit in GraphPad Prism 9 using one site total model and averaged from three independent runs with three replicates (n=3, FIG. 8). In competitive titration experiments Menin proteins (1 nM WT, 1 nM M327I or 3 nM for T349M) and 1 nM FITC-conjugated MLL14-43(C-A) peptide probe were incubated in an assay buffer for 30 min. SNDX-5613 was then dispensed to 384-well microplate (Corning, 4514) containing 15 μL of the assay mix using D300e Digital Dispenser (HP) and normalized to 1% DMSO followed by 90 min incubation. The fluorescence polarization was monitored by PHERAstar FS microplate reader (BMG Labtech). The MLL14-43(WT) and MLL14-43(C-A) peptide titrations were performed by addition of 7.5 μL of 2-fold 23-point serial dilution into 7.5 μL of assay mix with the final concentrations of 1 nM FITC-conjugated MLL4-43 peptide probe, 1 nM WT Menin or 1 nM Menin M327I or 3 nM Menin T349M in assay buffer. The fluorescence polarization was monitored by PHERAstar FS microplate reader (BMG Labtech). For analysis of the competitive titration experiments the last 10 cycles of the data were averaged to obtain technical replicates. Data from three independent replicates (n=3) was plotted and IC50 values estimated using variable slope equation in GraphPad Prism 9. The calculation of Ki values was performed using Ki calculator available at websites.umich.edu/˜shaomengwanglab/software/calc_ki/index.html^23.

[2] = biological target: T2, M327I-mutant Menin (Homo sapiens, UniProt O00255, M322I); test: as above
T2 construct: made in house; host or cells: E. coli BL21-DE3 Rosetta
T2 sequence (O00255 1-615 isoform O00255-1 M327I): T1 sequence (O00255 1-615 isoform O00255-1 T349M) with M327I, M349T
Protocol: as §1

Q: Which results are given for CCN(C(=O)c1cc(F)ccc1Oc1cncnc1N1CC2(CCN(C[C@H]3CC[C@H](NS(=O)(=O)CC)CC3)CC2)C1)C(C)C [SNDX-5613, revumenib]?
A: increase of IC50-value for MLL-displacement compared to WT Menin ([1]; T349M mutant vs WT Menin): 111 fold; increase of IC50-value for MLL-displacement compared to WT Menin ([2]; M327I mutant vs WT Menin): 51 fold; reduction in affinity, fluorescence polarization ([2]; MEN1-M327I compared to MEN1-WT): over 50 fold

Q: What does the source list for CNc1nc(NC2CCN(Cc3ccc4c(cc(C#N)n4CC45CC(NC=O)(C4)C5)c3C)CC2)c2cc(CC(F)(F)F)sc2n1 [MI-3454]?
A: effect of T349M on binding in the fluorescence polarization assay ([1]; T349M mutant Menin): less affected; effect of M327I on binding ([2]; M327I mutant Menin): severely affected
